Laboratory results: article PMC6562610, “Inhibition of Hedgehog Signaling in Fibroblasts, Pancreatic, and Lung Tumor Cells by Oxy186, an Oxysterol Analogue with Drug-Like Properties” (Cells, 2019)
“Also recorded” adds a separate entry of the source. Where two headings read alike, the source gives them in different places.

Legend:
[1] = Pharmacokinetic study in mice, single oral dose; type: in vivo, balb/c mice; conditions: for Cmax: read-out: maximum serum concentration (Cmax)
Procedure: In an initial assessment of the drug-like properties of Oxy186, we performed a pharmacokinetic (PK) study in mice. Oxy186, formulated in 4% ethanol, 15% DMSO, and 81% corn oil, was administered to balb/c mice by oral gavage as a single dose of 50 mg/kg.
Figure 8 Drug-like properties of Oxy186. (a) A single dose of Oxy186 at 50 mg/kg, formulated in 4% ethanol/ 15% DMSO/ 81% corn oil, was administered to balb/c mice by oral gavage. Plasma samples were taken at 10 min, 30 min, 1, 2, 4, 6, 8, and 24 h, followed by LC/MS analysis of the plasma. (b) Evolution of Oxy186 from parent compound Oxy16 and their drug-like properties.

[2] = test system: Gli1 expression in H2030 cells; assay: Inhibition of Gli1 expression in H2030 cells, Q-RT-PCR; type: cell-based, human; conditions: 10 µM, 72 h
Excerpt: NIH3T3-E1 fibroblasts were obtained from ATCC (Manassas, VA) and cultured, as previously described. CAPAN-1 and PANC-1 human pancreatic cancer cells were obtained from ATCC and cultured in Dulbecco’s Modified Eagle Medium (DMEM) containing 10% heat-inactivated fetal bovine serum (FBS) (Hyclone Laboratories, Logan, UT, USA) and antibiotics, as previously described. The human lung cancer cell lines A549 and H2030 were obtained from ATCC and cultured in RPMI-1640 containing 10% FBS. The human hepatoma cell line HepG2 was obtained from ATCC and cultured in DMEM containing 10% FBS. Mouse embryonic fibroblasts (MEFs) from suppressor of fused (Sufu) null mice (Sufu^−/−) were provided by Dr. Philip Beachy of Stanford University and cultured in DMEM containing 10% FBS. Gant61, SB431542 and vismodegib (GDC0449) were obtained from Cayman Chemical, HPI-1 was obtained from Abcam. For experiments, cells were treated in a medium containing 5% FBS.
Total RNA was extracted with the RNeasy Plus Mini Kit from Qiagen, according to the manufacturer’s instructions. One microgram of RNA was reverse-transcribed using an iScript Reverse Transcription Supermix from Bio-Rad, to make single-stranded cDNA. The cDNAs were then mixed with Qi SYBR Green Supermix (Bio-Rad, Hercules, CA, USA) for quantitative RT-PCR assay using a Bio-Rad I-cycler IQ quantitative thermocycler. All PCR samples were prepared in triplicate wells in a 96-well plate. […] Fold changes in gene expression were calculated using the ΔΔCt method. […]
Figure 4 Inhibition of Gli and Shh expression in (a) PDAC (PANC-1) and (b,c) human lung cancer cells (A549 and H2030, respectively) by Oxy186. Cells were treated with the compounds as indicated in DMEM or RPMI 1640 containing 5% FBS for (a) 48 or (b,c) 72 hours, then RNA was extracted and analyzed by Q-RT-PCR for the expression of Gli1 and normalized to GAPDH expression. (d) CAPAN-1 cells were treated with the compounds, as indicated, in DMEM containing 5% FBS for 72 h, then RNA was extracted and analyzed by Q-RT-PCR for the expression of Shh and normalized to GAPDH expression. […]

[3] = test system: Hh target genes, Gli1 and Ptch1; assay: Induction of Hh target genes by oxysterol alone in NIH3T3-E1 cells, Q-RT-PCR; type: cell-based, mouse; conditions: up to 10 µM, no CM
Procedure: Total RNA was extracted with the RNeasy Plus Mini Kit from Qiagen, according to the manufacturer’s instructions. One microgram of RNA was reverse-transcribed using an iScript Reverse Transcription Supermix from Bio-Rad, to make single-stranded cDNA. The cDNAs were then mixed with Qi SYBR Green Supermix (Bio-Rad, Hercules, CA, USA) for quantitative RT-PCR assay using a Bio-Rad I-cycler IQ quantitative thermocycler. All PCR samples were prepared in triplicate wells in a 96-well plate. After 40 cycles of PCR, melt curves were examined in order to ensure primer specificity. Fold changes in gene expression were calculated using the ΔΔCt method. Primers used for mouse were as follows: Oaz1 (5’-CCACTGCTTCGCCAGAGAG-3’) and (5’-CCCGGACCCAGGTTACTA-3’), Gli1 (5’-[…]-3’ and 5’-[…]-3’), Ptch1 (5’-CCATCGGCGACAAGAACC-3’ and 5’-[…]-3’), Hip (5’-[…]-3’ and 5’-[…]-3’), and Abca1 (5’-[…]-3’ and 5’-[…]-3’). […]
Figure 3 Inhibition of ligand-induced Hedgehog signaling. […] After 72 h, RNA was extracted and analyzed by Q-RT-PCR for the expression of Hh target genes Gli1 (a,b,d) and Ptch1 (c), and normalized to Oaz1 expression. […] Luciferase activity was measured and normalized to the Renilla luciferase activity. […]

[4] = mouse, plasma, balb/c mice, 50 mg/kg, oral gavage, single dose

C[C@]12CC[C@H](O)C[C@@H]1CC[C@@H]1[C@@H]2CC[C@@]2(C)[C@H]1CC[C@@H]2[C@](C)(O)CCc1ccc(F)cc1 [Oxy186, (3S,5S,8R,9S,10S,13S,14S,17S)-17-((R)-4-(4-fluorophenyl)-2-hydroxybutan-2-yl)-10,13-dimethylhexadecahydro-1H-cyclopenta[a]phenanthren-3-ol]
In vivo availability / stability (Figure 8b summary) ([1]; Figure 8b drug-like properties summary): Orally available in mice | Tolerability ([1]; balb/c mice, 50 mg/kg, oral gavage, single dose): well tolerated; also recorded: no overt signs of toxicity | Tmax [1, 4]: 2 h | AUC ([1]; mouse, plasma, balb/c mice, 50 mg/kg, oral gavage, single dose, read-out: area under the curve (AUC)): 10.5 µg·h/mL | Cmax [1, 4]: 1.49 µg/mL | half-life ([1]; mouse, plasma, balb/c mice, 50 mg/kg, oral gavage, single dose, read-out: oral half-life (T1/2) (converted)): 4.5 h | AUC ([1]; mouse, plasma, balb/c mice, 50 mg/kg, oral gavage, converted from ng/mL, read-out: area under the curve (AUC), molar): 23.7 µM·h | Cmax ([1]; mouse, plasma, balb/c mice, 50 mg/kg, oral gavage, converted with MW = 442.32): 3.4 µM | Inhibition of expression of Gli1 [2]: significantly inhibited | Induction of Hh target genes Gli1 and Ptch1 [3]: not
